# According to patent US4474775A, “Pyrazol-4-yl phosphates and insecticidal and acaricidal use” (priority 1979, dated 1984):
# How the values were obtained:
# [1] = test system: Unaspis yanonensis; assay: Effectiveness against Unaspis yanonensis (Testing Example 3); type: in vivo; conditions: 480 h, second-instar larvae, 500 ppm wettable powder suspension sprayed, 20th day after spraying
# Experimental: Testing Example 3: Effectiveness of Unaspis yanonensis
# A test compound was processed into a wettable powder in accordance with the formulation of Example 7, and was diluted with water (with Dyne®, spreading agent, as diluted 3000-fold) to prepare a 500 ppm aqueous suspension. 20 ml of the aqueous suspension was sprayed on second-instar larvae (10 to 50 of the number parasitized) of Unaspis yanonensis on a seedling of Citrus trifoliate (2 months after germination) being planted in a pot (9 cm in diameter). After the sprayed pot was transferred to a greenhouse (25° to 30°C.), adult insects were counted on the 20th day after spraying. Mortality (%) is calculated by the following equation: [formula]
# [2] = Oral acute toxicity in mice (Toxicological Test); conditions: mouse, in vivo, five-week aged ddY-SLC strained male mice
# Description: Below tabulated are the oral acute toxicity values obtained with five-week aged, ddY-SLC strained male mice: […]
# [3] = test system: Spodoptera litura; assay: Effectiveness against Spodoptera litura (Testing Example 2); type: in vivo; conditions: second-instar larvae, 500 ppm spray on soybean, 28° C., 24 hours
# Experimental: Testing Example 2: Effectiveness against Spodoptera litura
# Twenty milliliters of a 500 ppm, water-diluted solution (with Dyne® Takeda Chem. Ind. Ltd., spreading agent, as diluted 3000-fold) of the test compound (the emulsifiable concentrate of Example 6) was sprayed on grown seedlings (10 days after germination) of soybean plant water-cultured in a polyethylene cup by the use of a spray gun (nozzle pressure of 1 kg/cm^2 gauge) in a spraying chamber. 2 hours after spraying, two main leaves of soybean plant were cut off and were placed into two cups (6 cm in diameter and 4 cm in depth), respectively, and ten second-instar larvae of Spodoptera litura were liberated. The cups were left in the room (28° C.) for 24 hours, and the dead larvae were counted.
# [4] = test system: Tetranychus urticae; assay: Effectiveness against Tetranychus urticae (Testing Example 4); type: in vivo; conditions: decrease rate grade, 500 ppm spray on kidney bean plant; for Efficacy grading, 2nd day: 2nd day after spraying; for Efficacy grading, 7th day: 7th day after spraying
# Experimental: Testing Example 4: Effectiveness against Tetranychus urticae
# A test compound was processed into an emulsifiable concentrate in accordance with the formulation of Example 6, and diluted with water (with Dyne®, spreading agent, as diluted 3000-fold) to prepare a 500 ppm aqueous solution. Ten female adults of Tetranychus urticae) were infected on the seedling of a kidney bean plant water-cultured in a polyethylene cup, and the cups were placed in a glass chamber (28° C.) for 24 hours, followed by spraying 20 ml of the aqueous solution on the kidney bean plant. After the sprayed cup was placed again in the glass chamber, the number of the adults and larvae living on the leaves was counted on the 2nd and 7th days after spraying. The test was repeated twice, and the test results are tabulated in Table 5 in terms of the efficacy grading as determined by calculating a decrease rate by the following equation:
# Decrease rate (%)=[(number of mites tested-number of larvae living on the day of inspection)/(number of mites tested)]×100
# [5] = test system: Laodelphax striatellus; assay: Effectiveness against Laodelphax striatellus, third-instar larvae, root dip (Testing Example 1 (a)); type: in vivo; conditions: 40 ppm emulsifiable concentrate dilution, root dip 2 hours, 28° C., 24 hours, read-out: Mortality (I)
# Experimental: (§1) Testing Example 1: Effectiveness against Laodelphax striatellus
# (a) A test compound was processed into an emulsifiable concentrate in accordance with the formulation of Example 6, followed by diluting with water to prepare a treating solution of a 40 ppm concentration. 2.5 ml of the treating solution was placed into a test tube (with 1.7 cm of diameter, 4 cm deep), in which three seedlings of a paddy-rice plant (on the 7th day after germination) were allowed to stand so their root portions were dipped into the solution for 2 hours. The seedlings were then transferred into a test tube having 1 ml water placed in the bottom, and ten third-instar larvae of Laodelphax striatellus were released. After allowing the test tube to stand in the room (28° C.) for 24 hours, the dead larvae were counted. The test is repeated twice, and the test results are tabulated, in terms of mortality, in Table 2 (I).
# [6] = test system: Laodelphax striatellus; assay: Effectiveness against Laodelphax striatellus, adults, dust on paddy-rice plant (Testing Example 1 (b)); type: in vivo; conditions: small brown planthopper, adults on dusted rice, 24 h
# Experimental: as §1
# (b) A test compound was processed into a dust preparation in accordance with the formulation of Example 8, and […] of the preparation was dusted on the potted paddy-rice plant (1/5,000 a) by the Berger Duster method. After dusting, leaves (15 cm long) of the paddy rice were cut off and were placed in a test tube containing 1 ml of water in the bottom, and ten adults of Laodelphax striatellus were released therein. After allowing the test tube to stand in the room (28° C.) for 24 hours, the dead insects were counted.
SMILES,mortality at 500 µg/mL [1] [%],LD50 [2] [mg/kg],mortality at 500 ppm [3] [%],"Efficacy grading, 2nd day [4]","Efficacy grading, 7th day [4]",mortality at 40 µg/mL [5] [%],Mortality (II) [6] [%]
CCOP(=S)(OCC)Oc1cnn(-c2ccccc2)c1 [compound 2],75,> 300,,,,,
CCCSP(=O)(OCC)Oc1cnn(-c2ccc(C)cc2C)c1 (centres unmarked) [compound 35],82,~300,100,3 (Not less than 90),3 (Not less than 90),,
CCCOP(=S)(OCC)Oc1cnn(-c2ccccc2)c1 (centres unmarked) [Compound No. 3],79,> 300,,3 (Not less than 90),0 (Not more than 20),,
"CCCSP(=O)(OCC)Oc1cnn(-c2ccccc2)c1 (centres unmarked) [Compound No. 4, O-ethyl-O-(1-phenylpyrazol-4-yl)-S-n-propylphosphorothiolate]",84,> 300,100,3 (Not less than 90),3 (Not less than 90),,
CCCSP(=S)(OCC)Oc1cnn(-c2ccc(OC)cc2)c1 (centres unmarked) [compound 25],100,> 300,100,3 (Not less than 90),3 (Not less than 90),,
CCCSP(=O)(OCC)Oc1cnn(-c2cc(Cl)cc(Cl)c2)c1 (centres unmarked) [compound 33],70,> 300,100,3 (Not less than 90),3 (Not less than 90),100,65
CCOP(=S)(OCC)Oc1cnn(-c2ccc(C)cc2C)c1 [compound 34],79,> 300,,,,,
"CCCSP(=O)(OCC)Oc1cnn(-c2ccc(Cl)c(Cl)c2)c1 (centres unmarked) [Compound No. 31, O-ethyl-O-[3,4-dichlorophenyl)pyrazol-4-yl]-S-n-propyl phosphorothiolate]",75,> 300,100,3 (Not less than 90),3 (Not less than 90),100,90
COP(=S)(OC)Oc1cnn(-c2ccccc2)c1 [Compound No. 1],86,> 300,,3 (Not less than 90),3 (Not less than 90),,
CCCSP(=O)(OCC)Oc1cnn(-c2ccccc2Cl)c1 (centres unmarked) [compound 12],71,> 300,100,3 (Not less than 90),3 (Not less than 90),,
CCCSP(=O)(OCC)Oc1cnn(-c2ccc(Cl)cc2Cl)c1 (centres unmarked) [compound 29],97,~300,100,3 (Not less than 90),3 (Not less than 90),95,30
